Converted amounts (≈) assume the structure as drawn.
Key:
[1] = Oral bioavailability in Sprague-Dawley rat at 10 mg/kg measured after 4 hrs; assay type: ADME, organism-based; conditions: in vivo
[2] = Solubility of the compound; assay type: physicochemical
[3] = system: Hepatitis C virus; assay: Antiviral activity against HCV GT1a-genotype assessed as inhibition of viral replication; assay type: functional, organism-based, Hepacivirus hominis
[4] = system: Hepatitis C virus; assay: Antiviral activity against HCV GT1b-genotype assessed as viral growth inhibition measured after 24 hrs; assay type: functional, organism-based, Hepacivirus hominis; conditions: for EC50: Hepatitis C virus, GT1b-genotype, 24 h
[5] = system: Pregnane X receptor (Homo sapiens); assay: PXR activation
[6] = Clearance in Wistar rat at 10 mg/kg, iv measured after 4 hrs; assay type: ADME, organism-based; conditions: in vivo
[7] = Clearance in Wistar rat at 10 mg/kg, po measured after 4 hrs; assay type: ADME, organism-based; conditions: in vivo
[8] = system: Hepatitis C virus; assay: Antiviral activity against HCV GT1b-genotype assessed as inhibition of viral replication measured after 24 hrs; assay type: functional, organism-based, Hepacivirus hominis
[9] = system: Hepatitis C virus; assay: Antiviral activity against HCV genotype 1a; assay type: functional, organism-based, Hepacivirus hominis
[10] = Aqueous solubility of the compound at pH 2.2 measured after 24 hrs; assay type: physicochemical

COc1ccc2c(c1)[C@@H]1C[C@]1(C(=O)N1CC(C)N(C)C(C)C1)Cn1c-2c(C2CCCCC2)c2ccc(C(=O)NS(=O)(=O)N(C)C)cc21 (some centres undefined)
bioavailability [1]: 17% | solubility [2]: 34 µg/mL (≈ 51.4 µM) | EC50 [3]: 1 nM | EC50 [4]: 3 nM | EC50 [5]: > 50 µM

COc1ccc2c(c1)C1CC1(C(=O)N1CC3CCC(C1)N3C)Cn1c-2c(C2CCCCC2)c2ccc(C(=O)NS(=O)(=O)N(C)C)cc21 (racemic)
CL [6]: 20.6 mg/mL/kg | CL [7]: 55.4 mg/mL/kg | EC50 [3]: 16 nM | EC50 [4]: 39 nM

O=C(O)c1ccc2c(C3CCCCC3)c3n(c2c1)CC(C(=O)N1CCOCC1)Cc1ccccc1-3 (racemic)
EC50 [3]: 2 nM | EC50 [8]: 200 nM

COc1ccc2c(c1)[C@@H]1C[C@]1(C(=O)N1[C@@H]3CC[C@H]1CN(C)C3)Cn1c-2c(C2CCCCC2)c2ccc(C(=O)NS(=O)(=O)N(C)C)cc21 [BECLABUVIR]
EC50 [9]: 200 nM | solubility at 24 h [10]: > 1600 µg/mL | Activity ([4]; time 24 hrs): 1.3 log10 IU/mL

Reference: ChEMBL document CHEMBL5252531, “2015 Philip S. Portoghese Medicinal Chemistry Lectureship. Curing Hepatitis C Virus Infection with Direct-Acting Antiviral Agents: The Arc of a Medicinal Chemistry Triumph” (J Med Chem, 2016)
